This note sets out measurements from article PMC7645381, “Development and application of a high-throughput screening assay for identification of small molecule inhibitors of the P. falciparum reticulocyte binding-like homologue 5 protein” (International Journal for Parasitology: Drugs and Drug …, 2020).

In assay [1] the test system is P. falciparum 3D7 parasites. The assay is described as follows: P. falciparum parasite viability assay (LDH). The assay is classed as cell-based. As for the experimental part:
A modified version of the lactate dehydrogenase (LDH) assay described by [Gamo et al. […] Compounds were pre-dispensed in 384-well plates, RPMI/Albumax growth media was added, and P. falciparum inoculated. Plates were incubated for 72 h and then frozen at −80 °C overnight. LDH activity was quantified with the modified cofactor 3-acetylpyridine adenine dinucleotide (APAD) (Sigma Aldrich) by measuring absorbance of the tetrazolium indicator nitro blue tetrazolium (NBT) (Sigma Aldrich) at 650 nm. Parasite conditions: […] Growth inhibition assay: […] Intermediate compound dilution plates were prepared by dispensing 5 μL from each well of the compound master plate into 11.5 μL of RPMI/Albumax growth media. Duplicate assay plates (384-well) were then prepared by dispensing 0.5 μL of compound from the intermediate dilution plates into 9.5 μL of RPMI/Albumax growth media. […] The final DMSO concentration was 0.1% (to limit toxicity to parasites). […] Evaluation of parasite growth measuring lactate dehydrogenase (LDH) activity: After 72 h of incubation, plates were frozen at −80 °C overnight and then thawed at room temperature for at least 4 h. […] Plates were shaken to ensure mixing and absorbance at 650 nm was monitored using a PerkinElmer Envision plate reader after 30 min of incubation at room temperature. Data were normalised to percent growth inhibition using positive and negative controls and analyzed using TIBCO Spotfire software.

Assay [2] addresses P. falciparum Rh5 (Rh5 – basigin interaction) (Plasmodium falciparum, UniProt Q8IFM5). The assay is described as follows: biochemical. It counts as binding. Conditions: for Rh5 inhibitory activity in the AlphaScreen assay: highest concentration tested 50 μM.
The subject of a further assay is P. falciparum D10. The assay can be described thus: P. falciparum D10 growth inhibition by flow cytometry. The assay is classed as cell-based. The conditions noted are these: for EC50: Plasmodium falciparum, D10, growth inhibition by flow cytometry, 12-point dilution series, 72 h. The protocol:
Pranlukast and selected analogues were then evaluated in a P. falciparum parasite viability assay. For this assay, we followed the procedure described by [Gamo et al. (2010)], that used lactate dehydrogenase (LDH) as a readout for parasite viability. In this assay, 3D7 parasites were incubated over 72 h in the presence of increasing concentrations of compounds. […]. For a comparison, selected compounds were incubated in the presence of P. falciparum D10 parasites for 72 h (Table 1, Fig. S14) and growth inhibition measured by flow cytometry. […].

Another assay has as its system HepG2 cells. The assay is described as follows: HepG2 growth inhibition assay. The assay is classed as cell-based. Conditions: Homo sapiens, 10-point dilution series, 48 h, Cell Titre-Glo. The protocol: HepG2 cells were cultured in Dulbeccos modified eagle's medium (DMEM) supplemented with 10% fetal calf serum (FCS), in a humidified incubator at 37 °C and 5% CO2. Ten-point compound titration assays were performed by treating cells (1 × 10^3) for 48 h in 384 well tissue culture treated plates (Greiner). Cytotoxicity was determined using Cell Titer Glo (Promega) and calculated as a percentage using DMSO as a positive growth control and 10 μM Bortezomib as a negative growth control. EC50 values were calculated using a 4-parameter log dose, non-linear regression analysis, with sigmoidal dose response (variable slope) curve fit using Graph Pad Prism (version 6.05). 0 and 100 constraint parameters were used for curve fitting. […]

In a further assay the test system is D10-PfPHG parasites. The assay can be described thus: Schizont rupture assay. It counts as cell-based, P. falciparum. The protocol:
D10-PfPHG parasites ([Wilson et al., 2010]) were cultured in human O^+ erythrocytes in RPMI-HEPES culture medium (pH 7.4, 50 μg/mL hypoxanthine, 25 mM NaHCO3, 20 μg/mL gentamicin, 0.5% Albumax II (Thermo Fisher Scientific) according to established protocols ([Trager and Jensen, 1976]) and maintained in an atmosphere of 1% O2, 4% CO2 and 95% N2. For assessment of merozoite invasion after schizont rupture, parasites were tightly synchronised to a 4 h window of invasion using heparin ([Boyle et al., 2010]; [Wilson et al., 2015]) and then grown for a further 42 h. Drug treatments were setup at 2–3% parasitaemia and 1% haematocrit in 50 μL volumes with a 1 in 10 dilution of drug added when parasites were 44–48 h post invasion. After 6 h of drug treatment and immediately after invasion was expected to finish, the assays were treated with 5 μg/mL ethidium bromide (EtBr, Bio-Rad) for 5 min prior to flow cytometry assessment of parasitaemia using a Becton Dickinson Accuri. Gating of newly invaded rings, free merozoites and unruptured late stages was achieved as per published methods ([Wilson et al., 2013]).
To determine if the modest activity of pranlukast and analogues in the parasite viability assay was a consequence of invasion inhibition, rather than inhibition at another stage of blood stage parasite development, we performed an assay that measures the effect of compound treatment on P. falciparum D10 asexual stage transition between late schizont and ring stages ([Wilson et al., 2013]). In this assay, highly synchronised mature schizont-stage parasites were incubated with pranlukast and selected analogues at 50 and 100 μM and the transition to newly invaded ring stage parasites was quantified by flow cytometry. In parallel, the rate of schizont rupture and merozoite release was quantified to assess whether any reduction in newly invaded ring stages was due to a block affecting merozoite release or development. […] Neither DMSO (at the maximal concentration used for the drug treatments of 0.1%) or a non-invasion inhibitory mAb control caused a reduction in merozoite invasion. […] […].

Assay [3] in a line: AlphaScreen TruHits counterscreen assay. The conditions noted are these: TruHits counterscreen, single point, 10 μM in duplicate. As for the experimental part:
The counterscreen assay was conducted using AlphaScreen TruHits kit (PerkinElmer). Biotinylated acceptor beads and Streptavidin donor beads were both diluted in assay buffer (final concentration of 10 μg/mL). Using the Combi-multidrop, 10 μL of each bead solution (20 μg/mL prepared in assay buffer) was added to every well of the assay plate under subdued lighting. Compound addition and assay readout was performed as described above.

[4] abbreviates: Plasmodium falciparum, 3D7, 72 h, LDH activity, 10-point dilution series, 72 h, read-out: P. falciparum 3D7 EC50.
The mark [5] stands for this setting: 50 and 100 μM, 6 h, flow cytometry.
Where [6] appears, read: LDH activity, 10-point dilution series, 72 h, read-out: P. falciparum 3D7 EC50.

Where two headings read alike, the source gives them in different places. Some results are limits rather than exact numbers.

P. falciparum Rh5 (Rh5 – basigin interaction), sequence (Q8IFM5 24-526): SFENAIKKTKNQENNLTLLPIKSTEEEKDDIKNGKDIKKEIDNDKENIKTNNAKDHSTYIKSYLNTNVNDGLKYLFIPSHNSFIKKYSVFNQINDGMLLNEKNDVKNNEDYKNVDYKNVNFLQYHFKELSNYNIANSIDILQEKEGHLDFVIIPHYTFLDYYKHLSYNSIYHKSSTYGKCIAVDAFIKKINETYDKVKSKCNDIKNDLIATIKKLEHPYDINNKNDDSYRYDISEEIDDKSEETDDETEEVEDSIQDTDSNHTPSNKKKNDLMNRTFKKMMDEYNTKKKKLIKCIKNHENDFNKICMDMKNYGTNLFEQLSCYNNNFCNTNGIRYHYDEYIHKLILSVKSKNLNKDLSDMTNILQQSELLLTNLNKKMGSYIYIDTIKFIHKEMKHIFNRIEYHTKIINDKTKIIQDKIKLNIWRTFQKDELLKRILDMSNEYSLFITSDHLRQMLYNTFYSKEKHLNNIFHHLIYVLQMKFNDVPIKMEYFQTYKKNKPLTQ

Take `C[C@H]1CCC/C=C/[C@@H]2C[C@H](O)C[C@H]2[C@H](O)/C=C/C(=O)O1` [Brefeldin A, reference compound]: the EC50 in assay [1] (setting [4]) was 3.5 µM.

For `CCN(CC)CCCC(C)Nc1ccnc2cc(Cl)ccc12` (stereo not shown) [Chloroquine, reference compound], in assay [1] (Plasmodium falciparum, 3D7, 72 h, read-out: P. falciparum 3D7 EC50, control, LDH activity, 72 h), the EC50 amounted to 0.018 µM.

`CCOC(=O)c1cc(=O)c2cccc(NC(=O)c3ccc(OCCCc4ccccc4)cc3)c2o1` [Compound 13, Ethyl 4-oxo-8-(4-(3-phenylpropoxy)benzamido)-4H-chromene-2-carboxylate]: the IC50 in assay [2] was more than 50 µM. Also, the EC50 (in assay [1] (setting [4]); with P. falciparum D10; with HepG2 cells) was more than 50 µM each time. For the same compound, the free merozoite numbers result with D10-PfPHG parasites (setting [5]) is on record as “no reduction in free merozoite numbers”. Also, in the assay with D10-PfPHG parasites (setting [5]), the “merozoite invasion (newly invaded early ring stages)” value (“merozoite invasion” below) is reported as “minimal inhibition of merozoite invasion”.

As for `O=C(Nc1cccc2c(=O)cc(C(=O)O)oc12)c1ccc(OCCc2ccccc2)cc1` [Compound 16, 4-Oxo-8-(4-phenethoxybenzamido)-4H-chromene-2-carboxylic acid], the half-inhibitory concentration (IC50) in assay [2] worked out at 40 µM. The EC50 was 37 µM in assay [1] (setting [6]), 40 µM in assay [1] (setting [4]), 6.7 µM with P. falciparum D10 and more than 50 µM with HepG2 cells. For the same compound, in the assay with P. falciparum D10 (EC50 D10 vs 3D7), the “fold more active against the D10 strain than the 3D7 strain” value is reported as 5 fold. Moreover, the “merozoite invasion” value with D10-PfPHG parasites (setting [5]) was “substantial reduction in the numbers of merozoites that had invaded and formed early ring stages”. Moreover, the free merozoite numbers result in the assay on D10-PfPHG parasites (lowest concentration tested (50 μM)) is given as “minimal loss in free merozoite numbers”.

With `O=C(Nc1cccc2c(=O)cc(C(=O)O)oc12)c1ccc(OCCCc2ccccc2)cc1` [Compound 17, 4-Oxo-8-(4-(3-phenylpropoxy)benzamido)-4H-chromene-2-carboxylic acid], half-maximal inhibition in assay [2] (IC50) was put at 24 µM. For the same compound, the EC50 in assay [1] (setting [4]) was 15 µM; in the assay with P. falciparum D10 it was 19 µM; with HepG2 cells it was more than 50 µM. In the assay on D10-PfPHG parasites (setting [5]), the free merozoite numbers entry is “no reduction in free merozoite numbers”. Also, the “merozoite invasion” value in the assay on D10-PfPHG parasites (setting [5]) was “minimal inhibition of merozoite invasion”.

On to `COc1ccc(C(=O)Nc2cccc3c(=O)cc(C(=O)O)oc23)cc1` [Compound 21, 8-(4-Methoxybenzamido)-4-oxo-4H-chromene-2-carboxylic acid], for which, in assay [2], the IC50 was more than 50 µM and the “Rh5 inhibitory activity in the AlphaScreen assay” value (“Rh5 inhibitory activity” for short) was “No activity”. Further, the EC50 in assay [1] (setting [4]) was more than 50 µM. Also, the 50% effective concentration (EC50) in the assay on HepG2 cells is more than 50 µM.

The compound `COc1ccc(C(=O)Nc2cccc3c(=O)cc(-c4nn[nH]n4)oc23)cc1` [Compound 24, 4-Methoxy-N-(4-oxo-2-(2H-tetrazol-5-yl)-4H-chromen-8-yl)benzamide] came in with an IC50 in assay [2] of more than 50 µM. In addition, the values for the EC50 (in assay [1] (setting [4]); in the assay with HepG2 cells) were 25 µM and more than 50 µM, respectively.

`O=C(Nc1cccc2c(=O)cc(-c3nn[nH]n3)oc12)c1ccc(OCCCc2ccccc2)cc1` [Compound 25, N-(4-Oxo-2-(2H-tetrazol-5-yl)-4H-chromen-8-yl)-4-(3-phenylpropoxy)benzamide] yielded an IC50 in assay [2] of 20 µM. Moreover, the EC50 in assay [1] (setting [6]) is 7.3 µM; in assay [1] (setting [4]), 7 µM; in the assay on HepG2 cells, more than 50 µM.

For the compound `CCCc1c(OCC(O)COc2ccc3c(=O)cc(C(=O)O)oc3c2CCC)ccc(C(C)=O)c1O` (stereo not shown) [FPL 55712, reference compound], the EC50 in assay [1] (Plasmodium falciparum, 3D7, 72 h, read-out: P. falciparum 3D7 EC50) is more than 50 µM; in the assay with HepG2 cells it was more than 50 µM.

On to `O=C(O)c1ccccc1Nc1cccc(OCc2ccc3ccccc3n2)c1` [SR2540, reference compound], for which, in assay [2], the concentration for half-maximal inhibition (IC50) is more than 50 µM. The compound also showed a concentration giving a half-maximal response (EC50) with P. falciparum D10 of 6.1 µM. Moreover, in the assay on HepG2 cells, the EC50 was more than 50 µM. In addition, in the assay on D10-PfPHG parasites (setting [5]), the free merozoite numbers entry is on record as “similarly reduced numbers of free merozoites”; the “merozoite invasion” value is “reduction in numbers of merozoites that had invaded and formed early ring stages”. For the same compound, the “increase in unruptured schizonts” value with D10-PfPHG parasites (at the concentrations tested (50 and 100 μM)) is on record as more than 40%.

In the case of `Oc1c(Cl)cc(Cl)c(Cl)c1Cc1c(O)c(Cl)cc(Cl)c1Cl` [WEHI-0104268, Hexachlorophene, reference compound], the “% Inhibition Counter” value in assay [3] is reported as 28.8475%.

`O.c1cnc2c(c1)ccc1cccnc12` [WEHI-1215482, 1,10-Phenanthroline monohydrate, reference compound]: in assay [2] (read-out: % Inhibition Confirmation), the inhibition at 10 µM came to 99.6%. Besides, in assay [3], the “% Inhibition Counter” value came out at 2.663%.

Take `O=C([O-])c1ccccc1-c1c2cc(Br)c(=O)cc-2oc2[c]([Hg+])c([O-])c(Br)cc12.[Na+].[Na+].[OH-]` [WEHI-1216497, Merbromin, reference compound]: the “% Inhibition Confirmation” value in assay [2] (confirmation, single point, 10 μM in duplicate) turned out to be 100.385%. For the same compound, the “% Inhibition Pilot” value in assay [2] (primary screen, 20 μM) came to 100.87%. In addition, the “% Inhibition Counter” value in assay [3] was found to be 29.2235%.

For the compound `CCC(CC)(CC(=O)Nc1cccc(/C=C/c2nc(C3CCC3)cs2)c1)C(=O)O` [cinalukast, reference compound], in assay [2], the IC50 is more than 50 µM and the “Rh5 inhibitory activity” value was “did not show Rh5 inhibitory activity”. The compound also displayed an EC50 in the assay with P. falciparum D10 of 32 µM. The same compound showed an EC50 in the assay with HepG2 cells of more than 50 µM. Further, in the assay with D10-PfPHG parasites (setting [5]), the free merozoite numbers result was “similarly reduced numbers of free merozoites”; the “merozoite invasion” value was “reduction in numbers of merozoites that had invaded and formed early ring stages”.

As to `COc1cc(C(=O)NS(=O)(=O)c2ccccc2C)ccc1Cc1cn(C)c2ccc(NC(=O)OC3CCCC3)cc12` [zafirlukast, reference compound], in assay [2], the half-inhibitory concentration (IC50) was 17 µM. Moreover, the “Rh5 inhibitory activity” value in assay [2] is reported as “possess inhibitory activity”. Further, the concentration giving a half-maximal response (EC50) in assay [1] (setting [6]) was 5.9 µM; in assay [1] (setting [4]) it was 6 µM; in the assay with HepG2 cells, more than 50 µM.

Turning to “cDPCP [WEHI-1215640, reference compound]”, the “% Inhibition Counter” value in assay [3] came out at 2.1075%.

heparin: in the assay with D10-PfPHG parasites (setting [5]), the free merozoite numbers entry was “not free merozoites” and the “merozoite invasion” value is given as “reduction in the number of early rings stage parasites”.
